Assay results published in patent US10420749B2, “Crystalline form of lorlatinib free base” (Pfizer Inc., priority 2015, dated 2019).
“Also recorded” adds a separate entry of the source. Each block holds one compound with its values, some of them ahead of it.

Legend:
Type in all cases: physicochemical
[1] = Thermodynamic stability: slurry experiments, solid form evaluated by PXRD; conditions: for Slurry Output (solid form): 2 weeks
Procedure: The thermodynamic stability of anhydrous lorlatinib free base (Form 7) was evaluated employing slurry experiments under a range of water activity and temperature conditions. […] After 2 weeks, the solids in equilibrium were isolated and the solid form was evaluated by PXRD.

[2] = Solid-state physical stability of Form 7 API at elevated humidity / accelerated conditions
Description: The physical stability of anhydrous lorlatinib free base (Form 7) API was investigated at elevated relative humidities (% RH) for extended time period and at accelerated stability conditions for shorter period.

[3] = Physical stability in the drug product by FT-Raman and Solid State NMR spectroscopy; conditions: for amount of physical impurity: in drug product
Description: The physical stabilities of lorlatinib Form 7 and acetic acid solvate in the drug product were investigated under a variety of conditions using FT-Raman and Solid State NMR spectroscopy.

Slurry Output (solid form) ([1]; IPA, water activity 0.25, 5° C.): Form 16
Slurry Output (solid form) ([1]; IPA, water activity 0.25, 40° C.): Form 7
Slurry Output (solid form) ([1]; IPA, water activity 0.25, RT): Form 7
Slurry Output (solid form) ([1]; IPA, water activity 0.50, 5° C.): Form 13
Slurry Output (solid form) ([1]; IPA, water activity 0.50, 40° C.): Form 5
Slurry Output (solid form) ([1]; IPA, water activity 0.50, RT): Form 13
Slurry Output (solid form) ([1]; IPA, water activity 0.70, 5° C.): Form 13
Slurry Output (solid form) ([1]; IPA, water activity 0.70, 40° C.): Form 5
Slurry Output (solid form) ([1]; IPA, water activity 0.70, RT): Form 13
Slurry Output (solid form) ([1]; IPA, water activity 0.90, 5° C.): Form 13
Slurry Output (solid form) ([1]; IPA, water activity 0.90, 40° C.): Form 13
Slurry Output (solid form) ([1]; IPA, water activity 0.90, RT): Form 13
Slurry Output (solid form) ([1]; MiBK, water activity 0, 5° C.): Form 7
Slurry Output (solid form) ([1]; MiBK, water activity 0, 40° C.): Form 7
Slurry Output (solid form) ([1]; MiBK, water activity 0, RT): Form 7
Slurry Output (solid form) ([1]; TBME, water activity 0, 5° C.): Form 7
Slurry Output (solid form) ([1]; TBME, water activity 0, 40° C.): Form 7
Slurry Output (solid form) ([1]; TBME, water activity 0, RT): Form 7
Slurry Output (solid form) ([1]; Toluene, water activity 0, 5° C.): Form 7
Slurry Output (solid form) ([1]; Toluene, water activity 0, 40° C.): Form 7
Slurry Output (solid form) ([1]; Toluene, water activity 0, RT): Form 7
Slurry Output (solid form) ([1]; Water, water activity 1.00, 5° C.): Form 7 + Form 18
Slurry Output (solid form) ([1]; Water, water activity 1.00, 40° C.): Form 7
Slurry Output (solid form) ([1]; Water, water activity 1.00, RT): Form 18
Slurry Output (solid form) ([1]; iProAc, water activity 0, 5° C.): Form 7
Slurry Output (solid form) ([1]; iProAc, water activity 0, 40° C.): Form 7
Slurry Output (solid form) ([1]; iProAc, water activity 0, RT): Form 7
Slurry Output (solid form) ([1]; nBuOH, water activity 0, 5° C.): Form 7
Slurry Output (solid form) ([1]; nBuOH, water activity 0, 40° C.): Form 7
Slurry Output (solid form) ([1]; nBuOH, water activity 0, RT): Form 20
Solid Form after storage (physical stability) ([2]; 80° C./40% RH, 1 week): Form 7
Physical change after storage (physical stability) ([2]; 80° C./75% RH, 1 week (as printed in text)): did not undergo any physical change
amount of physical impurity ([3]; 25° C./60% RH, 12 months): No change detected
amount of physical impurity ([3]; 30° C./65% RH, 12 months): No change detected
amount of physical impurity ([3]; 50° C./75% RH, 2 weeks): No change detected
amount of physical impurity ([3]; 70° C./10% RH, 3 weeks): No change detected
amount of physical impurity ([3]; 70° C./40% RH, 2 weeks): No change detected
amount of physical impurity ([3]; 70° C./75% RH, 1 week): No change detected
physical stability relative to the acetic acid solvate of lorlatinib free base ([3]; representative drug product formulation): superior physical stability
SMILES: C[C@H]1Oc2cc(cnc2N)-c2c(nn(C)c2C#N)CN(C)C(=O)c2ccc(F)cc21 [Form 7, (10R)-7-amino-12-fluoro-2,10,16-trimethyl-15-oxo-10,15,16,17-tetrahydro-2H-8,4-(metheno)pyrazolo[4,3-h][2,5,11]benzoxadiazacyclotetradecine-3-carbonitrile]
Thermodynamic stability, overall outcome of slurry experiments ([1]; diverse solvent systems, 5° C., room temperature and 40° C., water activities 0.25 to 1.00, 2 weeks): does not convert to a different anhydrous solid state
Solid Form after storage (physical stability) ([2]; 70° C./75% RH, 1 week): did not undergo any physical change; also recorded: Form 7
Solid Form after storage (physical stability) ([2]; 75% RH, ambient temperature, 12 months): did not undergo any physical change; also recorded: Form 7
Solid Form after storage (physical stability) ([2]; 90% RH, ambient temperature, 12 months): did not undergo any physical change; also recorded: Form 7

amount of physical impurity ([3]; 70° C./10% RH, 3 weeks): impurity >50%
amount of physical impurity ([3]; 70° C./40% RH, 2 weeks): impurity >50%
amount of physical impurity ([3]; 70° C./75% RH, 1 week): impurity >50%
SMILES: CC(=O)O.C[C@H]1Oc2cc(cnc2N)-c2c(nn(C)c2C#N)CN(C)C(=O)c2ccc(F)cc21 [lorlatinib acetic acid solvate, reference compound]
